In patent US20240316074A1 (priority 2021, published 2024):
≈ marks a conversion by molar mass, not a printed value.

Key:
[1] = target: T1, SARS-CoV-2 spike protein S1 subunit (Severe acute respiratory syndrome coronavirus 2, UniProt P0DTC2); assay type: binding
T1 construct: Recombinant SARS-CoV-2 spike protein S1 subunit (˜72 kDa) containing an N-terminal His-tag; purchased RayBiotech (Peachtree Corners, GA)

[2] = target: T2, transporter ABCG2 (also called BCRP) (Homo sapiens, UniProt Q9UNQ0); settings: cited from earlier work
T2 sequence (Q9UNQ0 1-655): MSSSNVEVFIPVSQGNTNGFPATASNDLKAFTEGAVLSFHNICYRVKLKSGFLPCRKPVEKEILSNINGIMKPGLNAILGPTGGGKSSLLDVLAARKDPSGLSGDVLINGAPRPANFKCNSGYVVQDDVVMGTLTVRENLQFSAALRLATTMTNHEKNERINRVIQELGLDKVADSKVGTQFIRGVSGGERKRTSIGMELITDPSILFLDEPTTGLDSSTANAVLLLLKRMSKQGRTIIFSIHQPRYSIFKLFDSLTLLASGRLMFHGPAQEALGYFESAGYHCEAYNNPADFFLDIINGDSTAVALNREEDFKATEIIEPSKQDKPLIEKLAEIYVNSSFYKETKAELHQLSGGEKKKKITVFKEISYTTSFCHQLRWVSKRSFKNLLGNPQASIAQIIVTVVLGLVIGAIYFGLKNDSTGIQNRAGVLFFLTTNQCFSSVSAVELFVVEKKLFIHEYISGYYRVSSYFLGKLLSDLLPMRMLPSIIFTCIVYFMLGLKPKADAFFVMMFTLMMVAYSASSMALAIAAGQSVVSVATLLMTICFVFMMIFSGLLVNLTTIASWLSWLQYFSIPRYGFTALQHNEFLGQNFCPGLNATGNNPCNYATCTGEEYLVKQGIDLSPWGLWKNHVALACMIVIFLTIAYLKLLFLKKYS

[3] = human volunteers, oral, 0.063 mg/kg; cited from earlier work
[4] = target: T1, SARS-CoV-2 spike protein S1 subunit; assay: Equilibrium dissociation constants by rapid equilibrium dialysis; assay type: binding; settings: 37° C., PBS pH 7.2
Experimental: Equilibrium dissociation constants. The affinity constants for the binding of active compounds to the spike protein S1 subunit were determined by rapid equilibrium dialysis. First, the optimum time for full equilibration of the RED device obtained from ThermoFisher (Waltham, MA) was determined with each of the compounds by adding 1 μM spike protein in buffer (300 μL) to the protein chamber and adding blank phosphate buffered saline, pH 7.2 (500 μL) to the buffer chamber. CBGA or CBDA was spiked into the protein chamber at a final concentration of 2.5 μM. […] After centrifugation at 18,000 g for 30 min, the supernatant was removed and ligand concentration was measured using UHPLC-MS/MS. Next, the equilibrium dissociation constants of CBGA and CBDA were determined by incubating the spike protein S1 subunit with different concentrations of the ligands ranging from 0.05-500 μM in triplicate. After 5 h for CBGA or 4 h for CBDA, the concentrations of each ligand in the sample and buffer chambers were measured using UHPLC-MS/MS as described above. Data analysis and fitting was carried out using Microsoft Excel (Seattle, WA) and KaleidaGraph v4.1 (Reading, PA).

SARS-CoV-2 (WA1/2020) [5] = assay type: cell-based
SARS-CoV-2 (WA1/2020) [6] = assay: microbe, parasite or virus in culture; assay type: cell-based; settings: Severe acute respiratory syndrome coronavirus 2, Vero C1008
[7] = beagle dogs, oral, 1 mg/kg; cited from earlier work
SARS-CoV-2 S1 protein = target: T3, SARS-CoV-2 S1 protein (Severe acute respiratory syndrome coronavirus 2, UniProt P0DTC2); assay: MagMASS competition assay with SBP-1 (binding site determination)
T3 construct: Recombinant SARS-CoV-2 spike protein S1 subunit (˜72 kDa) containing an N-terminal His-tag; purchased RayBiotech (S1); LifeTein (SBP-1 peptide)

| Compound | Fold Peak Area Enrichment, Standards mixture [1] | Fold peak area enrichment [1] | binding in competitive binding MagMASS assays [1] | also measured |
| --- | --- | --- | --- | --- |
| CCCCCc1cc(O)c2c(c1)OC(C)(CCC=C(C)C)C=C2 (stereo not drawn) [CBC, Cannabichromene] | 2.9 ± 0.75 | 2.9 ± 0.75 | weak or no binding |  |
| C=C(C)[C@@H]1CCC(C)=C[C@H]1c1c(O)cc(CCCCC)cc1O [CBD, Cannabidiol] | 2.9 ± 0.72 | 2.9 ± 0.72 | weak or no binding | inhibition of the transporter ABCG2 [2]: inhibitors |
| C=C(C)[C@@H]1CCC(C)=C[C@H]1c1c(O)cc(CCCCC)cc1OC [CBD-OMe] |  |  |  | Fold Peak Area Enrichment, Pure compound [1]: 1.5 ± 0.12 |
| C=C(C)[C@@H]1CCC(C)=C[C@H]1c1c(O)cc(CCCCC)c(C(=O)O)c1O [CBDA, Cannabidiolic acid] | 12.2 ± 0.52 | 12.2 ± 0.52 |  | substrate of the efflux transporter ABCG2 [2]: substrate; maximum plasma concentrations [3]: 0.21 µM; Kd [4]: 5.6 ± 2.2 µM; Fold Peak Area Enrichment, Extract #5 [1]: 15.0 ± 0.5; Fold Peak Area Enrichment, Pure compound [1]: 15.5 ± 1.1; SARS-CoV-2 viral RNA in cells (anti-dsRNA staining) (SARS-CoV-2 (WA1/2020) [5]): absence of SARS-CoV-2 viral RNA; IC50 (SARS-CoV-2 (WA1/2020) [6]): 24 µg/mL (≈ 66.9 µM); bioavailability relative to CBD [7]: 2 fold; serum levels [7]: up to 1.42 μM; tolerability [7]: well tolerated |
| C=C(C)[C@@H]1CCC(C)=C[C@H]1c1c(O)cc(CCC)cc1O [CBDV, Cannabidivarin] | 1.6 ± 0.17 | 1.6 ± 0.17 |  |  |
| CCCCCc1cc(O)c(C/C=C(\C)CCC=C(C)C)c(O)c1 [CBG, Cannabigerol] | 3.4 ± 0.82 | 3.4 ± 0.82 | weak or no binding | inhibition of the transporter ABCG2 [2]: inhibitors |
| CCCCCc1cc(O)c(C/C=C(\C)CCC=C(C)C)c(OC)c1 [CBG-OMe] |  |  |  | Fold Peak Area Enrichment, Pure compound [1]: 1.8 ± 0.07 |
| CCCCCc1cc(O)c(C/C=C(\C)CCC=C(C)C)c(O)c1C(=O)O [CBGA, Cannabigerolic acid] | 20.5 ± 0.51 | 20.5 ± 0.51 |  | Kd [4]: 19.8 ± 2.7 µM; Fold Peak Area Enrichment, Pure compound [1]: 10.9 ± 1.3; SARS-CoV-2 viral RNA in cells (anti-dsRNA staining) (SARS-CoV-2 (WA1/2020) [5]): absence of SARS-CoV-2 viral RNA; IC50 (SARS-CoV-2 (WA1/2020) [6]): 37 µg/mL (≈ 103 µM) |
| CCCCCc1cc(O)c2c(c1)OC(C)(C)c1ccc(C)cc1-2 [CBN, Cannabinol] | 3.4 ± 0.78 | 3.4 ± 0.78 | weak or no binding |  |
| CCCCCc1cc2c(c(O)c1C(=O)O)-c1cc(C)ccc1C(C)(C)O2 [CBNA, Cannabinolic acid] |  | 5.6 ± 1.4 |  |  |
| Cc1ccc(NC(=O)c2ccc(CN3CCN(C)CC3)cc2)cc1Nc1nccc(-c2cccnc2)n1 [Imatinib, imatinib] |  |  |  | binding to the immobilized S1 protein in the MagMASS assay [1]: no binding |
| CCCCCc1cc2c(c(O)c1C(=O)O)[C@@H]1C=C(C)CC[C@H]1C(C)(C)O2 [THCA-A, Tetrahydrocannabinolic acid] | 16.7 ± 2.2 | 16.7 ± 2.2 |  | Fold Peak Area Enrichment, Pure compound [1]: 19.7 ± 2.0 |
| C=CC(C)(C)c1cc(/C=C/C(=O)c2ccc(O)cc2)c(OC)cc1O [licochalcone A] |  |  |  | binding in the presence of SBP-1 (SARS-CoV-2 S1 protein; 2.8 μM SBP-1): reduced; MagMASS peak area enrichment lowered when SBP-1 was added (SARS-CoV-2 S1 protein; SBP-1 added to incubation with active S1 protein): 3 fold |
| COc1c(C)c2c(c(O)c1C/C=C(\C)CCC(=O)O)C(=O)OC2 [mycophenolic acid] |  |  |  | binding to the immobilized S1 protein in the MagMASS assay [1]: no binding |
| CCN(CC)CCCC(C)Nc1c2ccc(Cl)cc2nc2ccc(OC)cc12 (stereo not drawn) [quinacrine] |  |  |  | binding to the immobilized S1 protein in the MagMASS assay [1]: no binding |
| CCCCCc1cc(O)c2c(c1)OC(C)(C)[C@@H]1CC=C(C)C[C@@H]21 [Δ^8-THC, Δ^8-Tetrahydrocannabinol] | 3.1 ± 0.81 | 3.1 ± 0.81 | weak or no binding |  |
| CCCCCc1cc(O)c2c(c1)OC(C)(C)[C@@H]1CCC(C)=C[C@@H]21 [Δ^9-THC, Δ^9-Tetrahydrocannabinol] | 3.0 ± 0.77 | 3.0 ± 0.77 | weak or no binding |  |
